Patent US20230148299A1, “FEM1B PROTEIN BINDING AGENTS AND USES THEREOF” (The Regents Of The University Of California, priority 2020, published 2023)

How the values were obtained:
[1] = target: FEM1B-FNIP1 (Homo sapiens, UniProt Q9UK73); assay: Fluorescence polarization between FEM1B and FNIP1 (covalent ligand screen); format: binding; settings: DMSO = 100, FP between FEM1B and FNIP1
Text: FIG. 11. Fluorescence polarization screen to identify functional FEM1B-FNIP1-targeting covalent ligands.
FEM1B binds a conserved central degron in FNIP1. Deletion analysis of FNIP1 identifies a stretch of 20 amino acids that is required for its binding to FEM1B and its proteasomal degradation. FNIP1 variants were expressed in cells and tested for interaction with ^FLAGFEM1B by co-immunoprecipitation, and for degradation by measuring their abundance in the presence or absence of FEM1B. The FNIP1 degron is required for FEM1B binding and proteasomal degradation. […] FEM1B variants were immunoprecipitated and bound FNIP1 and FLCN were detected by Western blotting. The FNIP1 degron is sufficient to mediate FEM1B-dependent degradation. The FNIP1 degron was fused to GFP (GFP^degron) and expressed from the same plasmid as an IRES controlled mCherry. mCherry provides normalization for GFP fluorescence in each cell. […] Levels of GFP^degron and mCherry were determined by FACS, and their ratio is depicted for presence or absence of FEM1B variants. Deletion of FEM1B prevents FNIP1-degron dependent degradation. The FEM1B locus was deleted in 293T cells using CRISPR/Cas9. Cells were transfected with the GFP^degron/mCherry reporter, and analyzed for GFP and mCherry fluorescence by FACS. FEM1B directly binds the FNIP1 degron in vitro. A TAMRA-labeled FNIP1 degron peptide was incubated with purified FEMIB or the control CRL1 adaptor FBXL17, and binding was measured by fluorescence polarization of the peptide. The FNIP1 degron is sufficient to mediate CUL2^FEM1B-dependent ubiquitylation. The TAMRA-labeled FNIP1 degron was incubated with recombinant CUL2^FEM1B (unmodified or NEDD8-modified), E1, ubiquitin, ATP and the E2 enzymes UBE2D3 and/or UBE2R1. Ubiquitylation was monitored by gel electrophoresis and fluorescence detection.

[2] = target: T1, FEM1B (Homo sapiens, UniProt Q9UK73); assay: Gel-based ABPP of EN106 against FEM1B and site identification; format: binding; settings: C186
Text: FIGS. 12A-12B. […] FIG. 12A: Gel-based ABPP of EN106 against FEM1B. FIG. 12B: EN106 targets C186 in FEM1B. C186 is critical for substrate recognition of FEM1B. Sequence shown is: […] (residues 183-205 of SEQ ID NO:1).

[3] = tested on: GFP-Fnip1 degron reporter; assay: GFP-Fnip1 degron reporter (GFP/mCherry) by flow cytometry; format: cell-based; settings: HEK293T cells, reporter +/- Fem1b, 20 μM, 8 hours
Procedure: HEK293T cells were transfected 24 hours before flow cytometery with the GFP-Fnip1 degron reporter+/−Fem1b.
FNIP1 variants were expressed in cells and tested for interaction with ^FLAGFEM1B by co-immunoprecipitation, and for degradation by measuring their abundance in the presence or absence of FEM1B. […] FEM1B variants were immunoprecipitated and bound FNIP1 and FLCN were detected by Western blotting. […] The FNIP1 degron was fused to GFP (GFP^degron) and expressed from the same plasmid as an IRES controlled mCherry. mCherry provides normalization for GFP fluorescence in each cell. […] Levels of GFP^degron and mCherry were determined by FACS, and their ratio is depicted for presence or absence of FEM1B variants. […] Cells were transfected with the GFP^degron/mCherry reporter, and analyzed for GFP and mCherry fluorescence by FACS. […] A TAMRA-labeled FNIP1 degron peptide was incubated with purified FEMIB or the control CRL1 adaptor FBXL17, and binding was measured by fluorescence polarization of the peptide. […] The TAMRA-labeled FNIP1 degron was incubated with recombinant CUL2^FEM1B (unmodified or NEDD8-modified), E1, ubiquitin, ATP and the E2 enzymes UBE2D3 and/or UBE2R1. Ubiquitylation was monitored by gel electrophoresis and fluorescence detection.

[4] = target: T1, FEM1B; assay: EN106-alkyne pulldown and isoTOP-ABPP in HEK293T cells; format: cell-based; set-up: endogenous in cells; host or cells: HEK293T; settings: EN106 10 μM 2 h (isoTOP-ABPP), EN106-alkyne pulldown
Procedure: FIGS. 14A-14C. […] FIG. 14A: Structures of EN106 and EN106-alkyne (NJH-2-030). FIG. 14B: EN106-alkyne pulldown. See Example 4 for experimental procedure. FIG. 14C: HEK293T cells were treated with vehicle or EN106 (10 μM) for 2 h and cell lysates were subjected to the isoTOP-ABPP protocol described in Example 4.
EN106-alkyne pulldown protocol. HEK293T cells were treated with DMSO or 10 μM NJH-2-030 in situ for 8 h. Cells were harvested, lysed via sonication and normalized to 2.0 mg/mL. Following normalization, 100 μL of each lysate sample was removed for Western blot analysis of input, and 500 μL of each lysate sample was incubated for 1 h at room temperature with 10 μL of 5 mM biotin picolyl azide (in water) (Sigma Aldrich 900912), 10 μL of 50 mM TCEP (in water), 30 μL of TBTA ligand (0.9 mg/mL in DMSO:t-butanol=1:4), and 10 μL of 50 mM Copper (II) Sulfate (12.5 mg/mL in water). Proteins were precipitated, washed 3×1 mL with cold MeOH, resolubilized in 1 mL of 1.2% SDS/PBS (w/v), heated for 5 min at 90° C., and centrifuged to remove any insoluble components. […] Proteins in each sample were then analyzed by Western blotting to look for enriched FEM1B versus non-enriched GAPDH.
IsoTOP-ABPP Chemoproteomic Experiment. […] Cells were lysed by probe sonication in PBS and protein concentrations were measured by BCA assay. […]

FEM1B-FNIP1, sequence (Q9UK73 whole entry): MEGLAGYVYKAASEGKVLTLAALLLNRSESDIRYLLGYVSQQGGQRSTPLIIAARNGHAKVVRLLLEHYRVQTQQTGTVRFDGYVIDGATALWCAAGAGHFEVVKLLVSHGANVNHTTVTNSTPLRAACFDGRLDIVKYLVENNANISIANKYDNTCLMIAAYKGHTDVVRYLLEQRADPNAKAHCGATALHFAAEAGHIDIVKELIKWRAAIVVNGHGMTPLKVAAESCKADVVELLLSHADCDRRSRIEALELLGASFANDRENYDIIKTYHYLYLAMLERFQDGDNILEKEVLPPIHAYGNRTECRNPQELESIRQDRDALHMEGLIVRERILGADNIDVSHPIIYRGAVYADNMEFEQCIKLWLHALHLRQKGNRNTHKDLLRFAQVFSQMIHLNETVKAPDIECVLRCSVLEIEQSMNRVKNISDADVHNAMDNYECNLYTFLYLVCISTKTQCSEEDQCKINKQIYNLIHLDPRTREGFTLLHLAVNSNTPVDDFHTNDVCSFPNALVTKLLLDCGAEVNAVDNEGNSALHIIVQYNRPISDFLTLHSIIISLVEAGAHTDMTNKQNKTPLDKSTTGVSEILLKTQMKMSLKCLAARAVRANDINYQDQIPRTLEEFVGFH
T1 sequence (Q9UK73 whole entry, the tested form may be a part): as the sequence (Q9UK73 whole entry) above

Q: What does the source list for N#CCCN(C(=O)CCl)c1ccc2c(c1)OCCO2 [EN106, 2-chloro-N-(2-cyanoethyl)-N-(2,3-dihydrobenzo[b][1,4]dioxin-6-yl)acetamide]?
A: remaining activity at 5 µM ([1]; compound at 5 μM, read-out: Normalized FP 5 μM): 50.6%; activity at 50 µM ([1]; compound at 50 μM, read-out: Normalized FP 50 μM): 4.2%; covalent targeting of FEM1B cysteine [2]: covalently targets C186 on FEM1B; inhibition of FEM1B in cells / FNIP1 stabilization [3]: inhibits endogenous and overexpressed FEM1B in cells and stabilizes FNIP1; FEM1B engagement in cells [4]: engages FEM1B in cells
